US20190298796A1, “Therapeutic Compositions from the Brevinin-1 Family of Peptides and Uses Thereof” (priority 2016, published 2019)
Values after ≈ are worked out from the molar mass of the structure shown. Like-named read-outs stand apart in the source and are kept apart here. Positions of bridges follow the written chain, without caps; N, C: chain ends. Residues, ends and D or L forms follow the SMILES beside them.

How the values were obtained:
S. aureus (MTCC 9542) = experiment: SYTOX green uptake, confocal imaging of membrane permeation; assay type: cell-based, Staphylococcus aureus; details: MIC concentration, 10 min, CLSM
Experimental: (§1) Imaging the bacterial membrane permeation by the amidated peptides. In order to find out the membrane damage by the peptides, if any, we used SYTOX green uptake assay. MIC concentrations of B1/1 CONH2 and B1/2 CONH2 were prepared in sodium phosphate buffer (10 mM, pH: 7.4). Overnight cultures of S. aureus (MTCC 9542) and V. cholerae (MCV09) were re-inoculated in fresh MHB to attain an OD600-0.6. The bacterial suspension was centrifuged (3000×g) for 5 min and the pellet was washed twice with the sodium phosphate buffer (10 mM, pH: 7.4). The pellet was resuspended in the same buffer to an OD600-0.06. Diluted culture was incubated with the peptides for 10 min at 37° C. 100 μl suspensions were poured on to poly-L-lysine coated glass slides and incubated at 37° c. for 30 minutes. The glass slides were washed twice in the same buffer to remove unattached cells. After washing 50 μl of DAPI (10 μg/ml) was smeared on the glass slide and incubated for 30 minutes at 37° C. The slides were washed twice with the buffer and SYTOX green (0.1 μM) was smeared and incubated for 15 minutes at room temperature, washed twice and dried. A drop of glycerol was placed on the slides, mounted with a cover slip and sealed. Controls were run in the presence of peptide solvents. The slides were subjected to confocal laser scanning microscopy (CLSM).

VRE ATCC 29212 = details: lowest concentration killing entire bacteria, 24 hrs
Text: (§2) Antimicrobial activity: Broth dilution method [39] was used to assess the antimicrobial activity of the peptides. Bacterial strains used for in vitro antibacterial assay were Staphylococcus aureus (MTCC 9542), Bacillus subtilis (MTCC 14416), Bacillus coagulans (ATCC 7050), Methicillin-resistant Staphylococcus aureus (MRSA) (ATCC 43300), Streptococcus mutans (MTCC 497), Streptococcus gordonii (MTCC 2695), Vibrio cholerae (MCV09), Escherichia coli (ATCC 25922), Vancomycin-resistant enterococcus (VRE) (ATCC 29212) and gram-negative fish pathogens Aeromonas hydrophila (ATCC 7966) and Aeromonas sobria (ATCC 43979). Bacterial cultures were grown in Muller Hinton broth (MHB) (Hi-media) by overnight incubation at 37° C. with constant shaking. Microbial cultures having 10^6 CFU/ml were made from OD600: 0.6 cultures. 400 μM stock solutions of peptides were prepared in autoclaved double distilled water and diluted in MHB to make concentrations ranging from 0.7 to 100 μM. Bacterial inoculum without peptide was used as the negative control.

MRSA ATCC 43300 = assay type: cell-based, Methicillin-resistant Staphylococcus aureus; details: lowest concentration killing entire bacteria, 24 hrs
Text: as §2

[1] = test system: Aeromonas sobria ATCC 43979; assay type: cell-based; details: Aeromonas sobria ATCC 43979 (fish pathogen); NA = not active up to the highest concentration tested
Text: as §2

human erythrocytes = assay type: cell-based; details: 60 min
Experimental: Hemolytic Activity: Hemolytic assay was carried out as previously described. Briefly, 10% (v/v) suspensions of fresh human erythrocytes in phosphate buffered saline (pH 7.2) were incubated with different concentrations (100 μM-0.7 μM) of B1/1 COOH & B1/2 COOH, B1/1 CONH2 & B1/2 CONH2 and cyclic B1/1 CONH2 & cyclic B1/2 CONH2 and incubated at 3^7° C. for 60 min. The cells were centrifuged (3000×g) for 5 min, and absorbance of the supernatant was measured at 595 nm. Hemolysis caused by 10% Triton X-100 was taken as positive control. Percentage hemolysis was calculated by measuring the mean amount of hemoglobin released as a result of lysis of erythrocyte from three independent experiments.

V. cholerae (MCV09) = experiment: SYTOX green uptake, confocal imaging of membrane permeation; assay type: cell-based, Vibrio cholerae; details: MIC concentration, 10 min, CLSM
Experimental: as §1

Vibrio cholerae MCV09 = assay type: cell-based; details: NA = not active up to the highest concentration tested
Text: as §2

[2] = test system: Bacillus subtilis MTCC 14416; assay type: cell-based; details: lowest concentration killing entire bacteria, 24 hrs
Text: as §2

[3] = test system: V. cholerae cells (MCV09); experiment: Atomic Force Microscopy of surface morphology; assay type: cell-based, Vibrio cholerae; details: MIC, 15 min
Experimental: Visualizing the changes in surface morphology of bacteria: Atomic Force Microscopy. This was incorporated to get more insights into the mechanism of action of the peptides and to confirm the results obtained from SEM. V. cholerae cells (MCV09) were grown in MHB at 37° C., washed, and suspended in sodium phosphate buffer (10 mM, pH: 7.4) (OD600-0.06). Diluted bacteria were incubated with the MICs of B1/1 CONH2 and B1/2 CONH2 for 15 min. The control sample was prepared without the peptides. Samples were prepared by drop casting 20 μL of a solution on the freshly cleaved mica surface and dried under air. AFM analyses were carried out on Multimode SPM (Veeco Nanoscope V). Imaging was done under ambient conditions in tapping mode. The probe used for imaging was antimony doped silicon cantilever with a resonant frequency of 300 kHz and a spring constant of 40 Nm^−1.

E .coli. ATCC 25922 = assay type: cell-based, Escherichia coli
Text: as §2

[4] = test system: Bacillus coagulans ATCC 7050; assay type: cell-based; details: lowest concentration killing entire bacteria, 24 hrs
Text: as §2

[5] = test system: Aeromonas hydrophilia ATCC 7966; assay type: cell-based, Aeromonas hydrophila; details: Aeromonas hydrophilia ATCC 7966 (fish pathogen); NA = not active up to the highest concentration tested
Text: as §2

[6] = test system: Staphylococcus aureus MTCC 9542; assay type: cell-based; details: lowest peptide concentration required to kill entire bacteria, 24 hrs, NA = not active up to the highest concentration tested
Text: as §2

[7] = test system: Streptococcus gordonii MTCC 2695; assay type: cell-based; details: NA = not active up to the highest concentration tested
Text: as §2

[8] = test system: Streptococcus mutans MTCC 497; assay type: cell-based; details: NA = not active up to the highest concentration tested
Text: as §2

gram-negative bacteria = experiment: MIC range over the tested gram-negative bacteria; assay type: cell-based
Text: as §2

[9] = at the peptide's MIC for Aeromonas sobria ATCC 43979 (MIC in parenthesis)
[10] = at the peptide's MIC for Staphylococcus aureus MTCC 9542 (MIC in parenthesis)
[11] = at the peptide's MIC for Vibrio cholerae MCV09 (MIC in parenthesis)

Row | Structure (SMILES) | SYTOX green fluorescence signal (membrane permeabilization) (S. aureus (MTCC 9542)) | MIC (VRE ATCC 29212) | MIC (MRSA ATCC 43300) | MIC [1] | Percentage hemolysis at MIC (human erythrocytes; [9]) | Percentage hemolysis at MIC (human erythrocytes; [10]) | Percentage hemolysis at MIC (human erythrocytes; [11]) | SYTOX green fluorescence signal (membrane permeabilization) (V. cholerae (MCV09)) | MIC (Vibrio cholerae MCV09) | MIC [2] | Changes in surface morphology (AFM) [3] | MIC (E .coli. ATCC 25922) | MIC [4] | MIC [5] | MIC [6] | MIC [7] | MIC [8] | Activity against gram-negative bacteria (MIC range) (gram-negative bacteria)
1 | CC[C@H](C)[C@H](NC(=O)CNC(=O)[C@@H]1CCCN1C(=O)[C@H](Cc1ccccc1)NC(=O)[C@@H](N)Cc1ccccc1)C(=O)N[C@H](C(=O)N[C@@H](CCCCN)C(=O)N[C@H](C(=O)N[C@@H](C)C(=O)NCC(=O)N[C@@H](C)C(=O)N[C@H](C(=O)N[C@@H](CC(C)C)C(=O)N1CCC[C@H]1C(=O)N[C@H](C(=O)N[C@@H](C)C(=O)N[C@H](C(=O)N[C@@H](CS)C(=O)N[C@@H](C)C(=O)N[C@H](C(=O)N[C@H](C(=O)N[C@@H](CCCCN)C(=O)N[C@@H](CCCNC(=N)N)C(=O)N[C@@H](CS)C(N)=O)[C@@H](C)O)[C@@H](C)CC)[C@@H](C)CC)[C@@H](C)O)[C@@H](C)CC)C(C)C)[C@@H](C)CC [B1/2 CONH2] (H-FFPGIIKVAGAILPTAICAITKRC-NH2; N-terminus assumed) | marked increase in fluorescence signal | 25 µM (≈ 62.6 µg/mL) | 5 µM (≈ 12.5 µg/mL) | 12.5 µM (≈ 31.3 µg/mL) | 25% | 8% | 25% | marked increase in fluorescence signal | 12 µM (≈ 30 µg/mL) | 30 µM (≈ 75.1 µg/mL) | changes in surface morphology and aggregation | 36.2 µM (≈ 90.6 µg/mL) | 12.5 µM (≈ 31.3 µg/mL) | 100 µM (≈ 250 µg/mL) | 2.5 µM (≈ 6.26 µg/mL) | 25 µM (≈ 62.6 µg/mL) | 40 µM (≈ 100 µg/mL) | 
2 | CC[C@H](C)[C@H](NC(=O)CNC(=O)[C@@H]1CCCN1C(=O)[C@H](Cc1ccccc1)NC(=O)[C@@H](N)Cc1ccccc1)C(=O)N[C@H](C(=O)N[C@@H](CCCCN)C(=O)N[C@H](C(=O)N[C@@H](C)C(=O)N[C@@H](CO)C(=O)N[C@@H](C)C(=O)N[C@H](C(=O)N[C@@H](CC(C)C)C(=O)N1CCC[C@H]1C(=O)N[C@H](C(=O)N[C@@H](C)C(=O)N[C@H](C(=O)N[C@@H](CS)C(=O)N[C@@H](C)C(=O)N[C@H](C(=O)N[C@H](C(=O)N[C@@H](CCCCN)C(=O)N[C@@H](CCCNC(=N)N)C(=O)N[C@@H](CS)C(N)=O)[C@@H](C)O)[C@@H](C)CC)[C@@H](C)CC)[C@@H](C)O)[C@@H](C)CC)C(C)C)[C@@H](C)CC [B1/1 CONH2] (H-FFPGIIKVASAILPTAICAITKRC-NH2; N-terminus assumed) | marked increase in fluorescence signal | 25 µM (≈ 63.3 µg/mL) | 2.5 µM (≈ 6.33 µg/mL) | 12.5 µM (≈ 31.7 µg/mL) | 25% | 10% | 20% | marked increase in fluorescence signal | 10.3 µM (≈ 26.1 µg/mL) | 36.3 µM (≈ 92 µg/mL) | changes in surface morphology and aggregation | 29 µM (≈ 73.5 µg/mL) | 8.2 µM (≈ 20.8 µg/mL) | 100 µM (≈ 253 µg/mL) | 1.5 µM (≈ 3.8 µg/mL) | 19 µM (≈ 48.1 µg/mL) | 36 µM (≈ 91.2 µg/mL) | 
3 | CC[C@H](C)[C@H](NC(=O)CNC(=O)[C@@H]1CCCN1C(=O)[C@H](Cc1ccccc1)NC(=O)[C@@H](N)Cc1ccccc1)C(=O)N[C@H](C(=O)N[C@@H](CCCCN)C(=O)N[C@H](C(=O)N[C@@H](C)C(=O)N[C@@H](CO)C(=O)N[C@@H](C)C(=O)N[C@H](C(=O)N[C@@H](CC(C)C)C(=O)N1CCC[C@H]1C(=O)N[C@H](C(=O)N[C@@H](C)C(=O)N[C@H](C(=O)N[C@@H](CS)C(=O)N[C@@H](C)C(=O)N[C@H](C(=O)N[C@H](C(=O)N[C@@H](CCCCN)C(=O)N[C@@H](CCCNC(=N)N)C(=O)N[C@@H](CS)C(=O)O)[C@@H](C)O)[C@@H](C)CC)[C@@H](C)CC)[C@@H](C)O)[C@@H](C)CC)C(C)C)[C@@H](C)CC [B1/1 COOH] (H-FFPGIIKVASAILPTAICAITKRC-OH; N-terminus assumed) |  | 50 µM (≈ 127 µg/mL) | 25 µM (≈ 63.4 µg/mL) |  |  | 20% |  |  |  | 98 µM (≈ 248 µg/mL) |  |  | 25 µM (≈ 63.4 µg/mL) |  | 9.5 µM (≈ 24.1 µg/mL) |  |  | not with gram-negative bacteria
4 | CC[C@H](C)[C@H](NC(=O)CNC(=O)[C@@H]1CCCN1C(=O)[C@H](Cc1ccccc1)NC(=O)[C@@H](N)Cc1ccccc1)C(=O)N[C@H](C(=O)N[C@@H](CCCCN)C(=O)N[C@H](C(=O)N[C@@H](C)C(=O)NCC(=O)N[C@@H](C)C(=O)N[C@H](C(=O)N[C@@H](CC(C)C)C(=O)N1CCC[C@H]1C(=O)N[C@H](C(=O)N[C@@H](C)C(=O)N[C@H](C(=O)N[C@H]1CSSC[C@@H](C(N)=O)NC(=O)[C@H](CCCNC(=N)N)NC(=O)[C@H](CCCCN)NC(=O)[C@H]([C@@H](C)O)NC(=O)[C@H]([C@@H](C)CC)NC(=O)[C@H](C)NC1=O)[C@@H](C)CC)[C@@H](C)O)[C@@H](C)CC)C(C)C)[C@@H](C)CC [Cyclic B1/2 CONH2] (H-FFPGIIKVAGAILPTAICAITKRC-NH2; disulfide 18-24; N-terminus assumed) |  | 30 µM (≈ 75 µg/mL) | 7 µM (≈ 17.5 µg/mL) | 3 µM (≈ 7.5 µg/mL) | 12% | 15% | 25% |  | 12.5 µM (≈ 31.3 µg/mL) | 35 µM (≈ 87.5 µg/mL) |  | 50 µM (≈ 125 µg/mL) | 29 µM (≈ 72.5 µg/mL) | 50 µM (≈ 125 µg/mL) | 3 µM (≈ 7.5 µg/mL) | 25 µM (≈ 62.5 µg/mL) | 40 µM (≈ 100 µg/mL) | 
5 | CC[C@H](C)[C@H](NC(=O)CNC(=O)[C@@H]1CCCN1C(=O)[C@H](Cc1ccccc1)NC(=O)[C@@H](N)Cc1ccccc1)C(=O)N[C@H](C(=O)N[C@@H](CCCCN)C(=O)N[C@H](C(=O)N[C@@H](C)C(=O)N[C@@H](CO)C(=O)N[C@@H](C)C(=O)N[C@H](C(=O)N[C@@H](CC(C)C)C(=O)N1CCC[C@H]1C(=O)N[C@H](C(=O)N[C@@H](C)C(=O)N[C@H](C(=O)N[C@H]1CSSC[C@@H](C(N)=O)NC(=O)[C@H](CCCNC(=N)N)NC(=O)[C@H](CCCCN)NC(=O)[C@H]([C@@H](C)O)NC(=O)[C@H]([C@@H](C)CC)NC(=O)[C@H](C)NC1=O)[C@@H](C)CC)[C@@H](C)O)[C@@H](C)CC)C(C)C)[C@@H](C)CC [Cyclic B1/1 CONH2] (H-FFPGIIKVASAILPTAICAITKRC-NH2; disulfide 18-24; N-terminus assumed) |  | 25 µM (≈ 63.3 µg/mL) | 5 µM (≈ 12.7 µg/mL) | 3 µM (≈ 7.59 µg/mL) | 10% | 11% | 20% |  | 12.5 µM (≈ 31.6 µg/mL) | 45 µM (≈ 114 µg/mL) |  | 50 µM (≈ 127 µg/mL) | 25 µM (≈ 63.3 µg/mL) | 100 µM (≈ 253 µg/mL) | 3 µM (≈ 7.59 µg/mL) | 25 µM (≈ 63.3 µg/mL) | 40 µM (≈ 101 µg/mL) | 
